In the supplement of paper PMC11451515:

Tested on: P12-Ichikawa
Assay: cell viability relative to DMSO control; higher = less cytotoxic
Conditions: 48 h
How it was run: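 In 1536-well plates, 5 μl of leukemia cells were seeded per well: 500 cells/well for NOMO1 or SEM and 1000 cells/well for P12-Ichikawa. Each line had first been adapted for at least four passages in each medium. Library compounds in DMSO were pin-dosed at 11 threefold concentrations between 47 μM and 0.79 nM, and CellTiter-Glo One luminescence was read after 48 h at 37°C. Viability is a per-plate percentage relative to DMSO wells, with cell-free wells as background.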

[1] = HPLM + 10% dialyzed FBS, 0.000781 µM
[2] = HPLM + 10% dialyzed FBS, 0.00234 µM
[3] = HPLM + 10% dialyzed FBS, 0.00702 µM
[4] = HPLM + 10% dialyzed FBS, 0.0211 µM
[5] = HPLM + 10% dialyzed FBS, 0.0632 µM
[6] = HPLM + 10% dialyzed FBS, 0.19 µM
[7] = HPLM + 10% dialyzed FBS, 0.569 µM
[8] = HPLM + 10% dialyzed FBS, 1.71 µM
[9] = HPLM + 10% dialyzed FBS, 5.12 µM
[10] = HPLM + 10% dialyzed FBS, 15.4 µM
[11] = HPLM + 10% dialyzed FBS, 46.1 µM
[12] = RPMI 5 mM glucose + 10% FBS, 0.000781 µM
[13] = RPMI 5 mM glucose + 10% FBS, 0.00234 µM
[14] = RPMI 5 mM glucose + 10% FBS, 0.00702 µM
[15] = RPMI 5 mM glucose + 10% FBS, 0.0211 µM
[16] = RPMI 5 mM glucose + 10% FBS, 0.0632 µM
[17] = RPMI 5 mM glucose + 10% FBS, 0.19 µM
[18] = RPMI 5 mM glucose + 10% FBS, 0.569 µM
[19] = RPMI 5 mM glucose + 10% FBS, 1.71 µM
[20] = RPMI 5 mM glucose + 10% FBS, 5.12 µM
[21] = RPMI 5 mM glucose + 10% FBS, 15.4 µM
[22] = RPMI 5 mM glucose + 10% FBS, 46.1 µM
[23] = RPMI 5 mM glucose + 10% dialyzed FBS, 0.000781 µM
[24] = RPMI 5 mM glucose + 10% dialyzed FBS, 0.00234 µM
[25] = RPMI 5 mM glucose + 10% dialyzed FBS, 0.00702 µM
[26] = RPMI 5 mM glucose + 10% dialyzed FBS, 0.0211 µM
[27] = RPMI 5 mM glucose + 10% dialyzed FBS, 0.0632 µM
[28] = RPMI 5 mM glucose + 10% dialyzed FBS, 0.19 µM
[29] = RPMI 5 mM glucose + 10% dialyzed FBS, 0.569 µM
[30] = RPMI 5 mM glucose + 10% dialyzed FBS, 1.71 µM
[31] = RPMI 5 mM glucose + 10% dialyzed FBS, 5.12 µM
[32] = RPMI 5 mM glucose + 10% dialyzed FBS, 15.4 µM
[33] = RPMI 5 mM glucose + 10% dialyzed FBS, 46.1 µM

Structure (SMILES)	cell viability [1]	cell viability [2]	cell viability [3]	cell viability [4]	cell viability [5]	cell viability [6]	cell viability [7]	cell viability [8]	cell viability [9]	cell viability [10]	cell viability [11]	cell viability [12]	cell viability [13]	cell viability [14]	cell viability [15]	cell viability [16]	cell viability [17]	cell viability [18]	cell viability [19]	cell viability [20]	cell viability [21]	cell viability [22]	cell viability [23]	cell viability [24]	cell viability [25]	cell viability [26]	cell viability [27]	cell viability [28]	cell viability [29]	cell viability [30]	cell viability [31]	cell viability [32]	cell viability [33]
COc1cc([C@@H](CC(=O)O)c2ccc(C)c(CN3C[C@@H](C)Oc4ccccc4[S+]3(=O)[O-])c2)cc2nnn(C)c12	108%	115%	114%	110%	109%	110%	115%	109%	96.6%	12.6%	10.5%	115%	114%	118%	106%	126%	113%	121%	111%	101%	84%	67.4%	114%	122%	115%	125%	114%	112%	116%	116%	104%	94.7%	70.7%
[O-]C(=O)C/1=N/C(=O)NC(=O)N1	99%	97%	98.3%	93.3%	102%	98%	90.1%	91.2%	81.8%	80.9%	83.4%	92.2%	97.2%	90%	96.6%	90.2%	92.3%	87.6%	91.8%	82.6%	82.1%	80.2%	90.6%	89.4%	88.4%	95.8%	92.8%	81.8%	85.3%	93.2%	88%	82.4%	76.5%
O=C(O)CCCCC(CCSCc1ccccc1)SCc1ccccc1 (stereo not given)	108%	115%	114%	109%	120%	116%	122%	113%	118%	62.1%	9.29%	112%	117%	138%	119%	128%	132%	130%	135%	121%	119%	58.4%	106%	116%	116%	111%	122%	124%	121%	122%	116%	101%	52.9%
O=[N+]([O-])c1ncc[nH]1	93.7%	88%	88.2%	83.4%	97%	102%	88.4%	81%	84.5%	75.4%	80.5%	88%	91%	84.6%	84.8%	91.6%	86.9%	78%	74.1%	81%	70.5%	78.8%	88.7%	86.1%	82.7%	98.4%	104%	99.9%	65.7%	78%	98%	71%	80.5%
Cc1nc2cc(C(=O)N3CCC4(CC3)CC(=O)c3c(cnn3C(C)C)C4)ccc2[nH]1	103%	121%	107%	120%	116%	119%	122%	110%	93.3%	112%	18%	–	–	–	–	–	–	–	–	–	–	–	–	–	–	–	–	–	–	–	–	–	–
CN(C)c1ccc2nc3ccc(N(C)C)cc3[s+]c2c1	99.5%	105%	109%	105%	109%	113%	111%	102%	59.7%	10.9%	3.04%	95.6%	106%	96.7%	109%	110%	124%	115%	98.5%	60.3%	8%	2.12%	91.4%	106%	98.2%	96.4%	104%	116%	114%	94.9%	71.3%	12.8%	2.16%
CC(C)N(C[C@H]1O[C@@H](n2cnc3c(N)ncnc32)[C@H](O)[C@@H]1O)[C@H]1C[C@@H](CCc2nc3cc(C(C)(C)C)ccc3[nH]2)C1	87.7%	93.6%	101%	98.2%	99.2%	103%	103%	12.9%	11.5%	11.6%	2.23%	90%	96.5%	103%	99.2%	95.4%	105%	102%	103%	108%	92.7%	1.91%	96.2%	100%	103%	104%	96.5%	97.6%	113%	99.2%	31.4%	31%	1.74%
C[N]1C=C(C2=CC=CC=C12)\C3=C(\C(=O)NC3=O)C4=C[N](C5CCN(CC5)CC6=NC=CC=C6)C7=C4C=CC=C7	110%	116%	115%	119%	118%	123%	120%	118%	118%	120%	117%	118%	126%	119%	115%	118%	123%	127%	124%	116%	116%	125%	–	–	–	–	–	–	–	–	–	–	–
N#C/C(=C\c1ccc(O)c(O)c1)C(=O)NCc1ccccc1	101%	96.5%	103%	106%	104%	106%	103%	100%	102%	68.5%	47.4%	105%	106%	101%	101%	103%	94.3%	103%	97.6%	87%	68.2%	36.7%	95.2%	96.1%	99.5%	97%	98.7%	88.3%	93.1%	94.7%	80.3%	67.7%	41.5%
COc1cc2ncn(-c3cc(OCc4ccccc4[S+](C)(=O)[O-])c(C#N)s3)c2cc1OC	101%	100%	93.8%	94%	102%	95.2%	96.7%	94.1%	84.5%	92%	77.5%	96.3%	99%	96.8%	97.8%	100%	95.3%	94.4%	89.7%	88.7%	91.3%	87.6%	90.1%	92.3%	87.7%	94.9%	94.8%	98%	95.4%	92.5%	82.7%	80%	73.6%
CCn1c(-c2nonc2N)nc2c(C#CC(C)(C)O)ncc(OC[C@H]3CCCNC3)c21	91.1%	94%	89%	84.1%	73.1%	74.6%	69.9%	66.3%	65.8%	61.4%	58.7%	77%	86.2%	76.2%	70.6%	53.1%	56.4%	46.2%	52.7%	45.1%	45.9%	46.7%	81.2%	87.4%	80.5%	77.3%	66.5%	66.7%	58.9%	56.6%	48.8%	50.2%	49.9%
OC1=CC2=C(C=C1)C(=O)\C(=C(O2)\C3=CC(=C(O)C=C3)O)O	102%	105%	98.2%	91.1%	94%	87.7%	89.5%	92.4%	86%	82.4%	44%	94.1%	94.7%	97.5%	87%	91.2%	96.5%	88.8%	85.5%	86%	88.1%	32.2%	86.5%	91.1%	88%	87.2%	97.6%	88.1%	85%	84.8%	90.4%	79.7%	32.5%
CCC(C)N1\N=C/N(C1=O)C2=CC=C(C=C2)N3CCN(CC3)C4=CC=C(OC[C@H]5CO[C@@](C[N]6C=NC=N6)(O5)C7=CC=C(Cl)C=C7Cl)C=C4 (stereo not given in full)	99.9%	109%	114%	120%	111%	115%	101%	101%	103%	98.8%	104%	111%	111%	119%	114%	108%	115%	115%	99.7%	108%	110%	97.2%	111%	113%	108%	111%	113%	111%	106%	105%	100%	98.5%	95.7%
C[C@H](CCC(=O)O)[C@H]1CCC2C3C[C@H](O)[C@@H]4C[C@H](O)CC[C@]4(C)C3CC[C@@]21C (stereo not given in full)	106%	113%	101%	112%	126%	115%	97.3%	93.7%	107%	96.8%	108%	105%	126%	120%	114%	117%	108%	105%	105%	102%	104%	105%	98.7%	108%	103%	103%	108%	97.5%	96.9%	98.9%	105%	90.4%	94.9%
N#CC(c1ccnc(NCCc2cccnc2)n1)c1nc2ccccc2s1 (stereo not given)	115%	128%	120%	127%	127%	134%	131%	121%	141%	141%	118%	–	–	–	–	–	–	–	–	–	–	–	122%	136%	122%	145%	142%	152%	151%	148%	140%	133%	120%
CN(C)C1=CC(=CC=C1)C\2=C\3C(=O)N(NC3=C/C(=O)N2C)C4=CC=CC=C4Cl	114%	112%	106%	111%	113%	95.8%	90.3%	10.8%	4.69%	4.7%	7.14%	113%	122%	116%	110%	117%	110%	103%	25.7%	9.73%	8.05%	15.8%	122%	114%	114%	112%	120%	109%	102%	41.3%	21.1%	16.6%	23.9%
COc1ccc(OC)c(-c2nnc3ccc(-c4ccc(OC)c(O[C@@H]5CCOC5)c4)nn23)c1	119%	118%	118%	126%	136%	117%	126%	132%	128%	124%	105%	–	–	–	–	–	–	–	–	–	–	–	–	–	–	–	–	–	–	–	–	–	–
